Experimental data reported in paper PMC8991960, “A Bivalent Activatable Fluorescent Probe for Screening and Intravital Imaging of Chemotherapy‐Induced Cancer Cell Death” (Angewandte Chemie (International Ed. in English), 2021).
Starred links: 1 amine or outer side, 2 acyl side, 3 side chain; linkers in the order of their positions; H or OH if unused. Non-standard residues stand in square brackets, D forms with d. Residues, ends and D or L forms follow the SMILES beside them. X1 = CC1=CC(C)=[N+]2C1=C(c1cccc(-c3[nH]c4ccccc4c3C[C@H](N[*:1])C(=O)[*:2])c1)c1ccc(-c3ccc(C)s3)n1[B-]2(F)F

Legend:
[1] = Stability analysis in mouse serum; format: in vitro ADME; details: mouse serum vs PBS, 24 h, 37 °C, 500 rpm; 25 µM (Figure S14) or 50 µM (method); HPLC after CH3CN protein precipitation, and fluorescence (exc 520 nm)
Excerpt: Optical intravital imaging is increasingly used for the preclinical evaluation of anticancer drugs in vivo. Although imaging modalities like computed tomography, positron emission tomography and magnetic resonance imaging can help to visualise whole intact organs in a non‐invasive manner,[26] they lack the spatiotemporal resolution needed to study dynamic interactions between individual tumour and stromal cells. This feature is critical to understand the mechanism of action of anticancer drugs and how they can affect interactions between cancer cells and immune cells in the tumour microenvironment.[27] Intravital imaging heavily relies on the acquisition of fluorescence signals using multiphoton microscopy, which provides cellular resolution with deep tissue penetration (≈500 μm) and minimal photodamage.[28] […] First, we analysed the chemical stability of Apotracker Red for in vivo studies by incubating the probe in mouse serum. […] When primary tumours measured around 0.5–1 cm in diameter, we administered cisplatin intraperitoneally (10 mg kg^−1). […]
fluorescence emission of Apotracker Red before and after incubation in mouse serum and […]
Fluorescence spectra were recorded after excitation at 520 nm. […]
Lipid layer assays . […] The LoD was calculated using the equation LoD = (3 × σ)/k, where σ is the standard […]

[2] = tested on: MDA-MB-231 cells; experiment: Cell viability (TACS MTT cell proliferation assay); format: cell-based, human; details: MDA-MB-231, different concentrations, 3 h, n=5
Protocol: (§1) Figure S15. Cell viability experiments (TACS® MTT cell proliferation assay) after incubation of Apotracker Red in breast cancer cell lines (a: MCF7 cells, b: MDA-MB-231 cells) at different concentrations for 3 h. Data presented as means ± SD (n=5). P values obtained from one- way ANOVA using multiple comparisons (ns for p>0.05).
(§2) Figure S16. Quantification of E GFP+ macrophages in tumours from untreated and cisplatin-treated mice by time- lapse imaging on a spinning disk confocal microscope (λexc: 488 nm). Data presented as means ± SD of 8 random areas in 2- 3 mice per group (untreated or treated with 10 μg g-1 cisplatin for 72 h). […]

[3] = tested on: MCF7 cells; experiment: Cell viability (TACS MTT cell proliferation assay); format: cell-based, human; details: MCF7, different concentrations, 3 h, n=5
Protocol: as §1, §2

## CC1=CC(C)=[N+]2C1=C(c1cccc(-c3[nH]c4ccccc4c3C[C@@H]3NC(=O)[C@H](Cc4ccccc4)NC(=O)[C@H](Cc4c[nH]c5ccccc45)NC(=O)[C@H](CCCCN)NC(=O)[C@H](CCCCN)NC(=O)[C@H](CCCNC(=N)N)NC(=O)CNC3=O)c1)c1ccc(-c3ccc(C)s3)n1[B-]2(F)F [Apotracker Red] (cyclo(F[X1]GRKKW))
[1]
  Proteolytic stability in mouse serum: good proteolytic stability for up to 24 h
[2]
  Cell toxicity (MTT): did not cause cell toxicity
[3]
  Cell toxicity (MTT): did not cause cell toxicity
